Data reported in PubChem BioAssay (NCI).
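96-well plates; 48 h exposure; 5 concentrations. Endpoints by linear interpolation between flanking doses. Not reached: highest tested concentration assigned. GI50: concentration for 50% inhibition of growth. Definition used: TGI = concentration required for complete inhibition of growth.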

Assays:
Assay in all cases: DTP human tumour cell line panel, 48 h
[1] = tested on: 786-0 renal
[2] = tested on: A498 renal
[3] = tested on: A549 NSCLC
[4] = tested on: ACHN renal
[5] = tested on: BT-549 breast
[6] = tested on: CAKI-1 renal
[7] = tested on: CCRF-CEM leukemia
[8] = tested on: COLO 205 colon
[9] = tested on: DU-145 prostate
[10] = tested on: EKVX NSCLC
[11] = tested on: HCC-2998 colon
[12] = tested on: HCT-116 colon
[13] = tested on: HCT-15 colon
[14] = tested on: HL-60(TB) leukemia
[15] = tested on: HOP-62 NSCLC
[16] = tested on: HOP-92 NSCLC
[17] = tested on: HS 578T breast
[18] = tested on: HT29 colon
[19] = tested on: IGROV1 ovarian
[20] = tested on: K-562 leukemia
[21] = tested on: KM12 colon
[22] = tested on: LOX IMVI melanoma
[23] = tested on: M14 melanoma
[24] = tested on: MALME-3M melanoma
[25] = tested on: MCF7 breast
[26] = tested on: MDA-MB-231 breast
[27] = tested on: MDA-MB-435
[28] = tested on: MOLT-4 leukemia
[29] = tested on: NCI-H226 lung
[30] = tested on: NCI-H23 lung
[31] = tested on: NCI-H460 lung
[32] = tested on: NCI-H522 lung
[33] = tested on: NCI/ADR-RES ovarian
[34] = tested on: OVCAR-3 ovarian
[35] = tested on: OVCAR-4 ovarian
[36] = tested on: OVCAR-5 ovarian
[37] = tested on: OVCAR-8 ovarian
[38] = tested on: PC-3 prostate
[39] = tested on: RPMI-8226 leukemia
[40] = tested on: RXF 393 renal
[41] = tested on: SF-268 CNS
[42] = tested on: SF-295 CNS
[43] = tested on: SF-539 CNS
[44] = tested on: SK-MEL-2 melanoma
[45] = tested on: SK-MEL-28 melanoma
[46] = tested on: SK-MEL-5 melanoma
[47] = tested on: SK-OV-3 ovarian
[48] = tested on: SN12C renal
[49] = tested on: SNB-19 CNS
[50] = tested on: SNB-75 CNS
[51] = tested on: SR leukemia
[52] = tested on: SW-620 colon
[53] = tested on: T-47D breast
[54] = tested on: TK-10 renal
[55] = tested on: U251 CNS
[56] = tested on: UACC-257 melanoma
[57] = tested on: UACC-62 melanoma
[58] = tested on: UO-31 renal

CCO/C=N/C1=C(C#N)C(c2ccc(Cl)cc2)c2sc3c(C)cccc3c2O1 (stereo unspecified)
GI50 [1]: 0.976 µM
TGI [1]: 13.9 µM
GI50 [2]: 0.315 µM
TGI [2]: 1.48 µM
GI50 [3]: 0.749 µM
TGI [3]: 15.1 µM
GI50 [4]: 0.631 µM
TGI [4]: 15.1 µM
GI50 [5]: 1.83 µM
TGI [5]: 11.4 µM
GI50 [6]: 0.532 µM
TGI [6]: 18.5 µM
GI50 [7]: 0.371 µM
TGI [7]: 19.4 µM
GI50 [8]: 1.99 µM
TGI [8]: 6.93 µM
GI50 [9]: 0.758 µM
TGI [9]: 14.4 µM
GI50 [10]: 0.604 µM
TGI [10]: 15.6 µM
GI50 [11]: 1.51 µM
TGI [11]: 8.52 µM
GI50 [12]: 0.448 µM
TGI [12]: 11.1 µM
GI50 [13]: 0.423 µM
TGI [13]: 10.2 µM
GI50 [14]: 0.329 µM
TGI [14]: 13.9 µM
GI50 [15]: 0.574 µM
TGI [15]: 18.6 µM
GI50 [16]: 0.188 µM
TGI [16]: 3.76 µM
GI50 [17]: 0.414 µM
TGI [17]: 11.5 µM
GI50 [18]: 0.967 µM
TGI [18]: 11.9 µM
GI50 [19]: 0.517 µM
TGI [19]: 15 µM
GI50 [20]: 0.379 µM
TGI [20]: > 51.3 µM
GI50 [21]: 0.551 µM
TGI [21]: 15.7 µM
GI50 [22]: 0.611 µM
TGI [22]: 13 µM
GI50 [23]: 0.528 µM
TGI [23]: 11.9 µM
GI50 [24]: 0.689 µM
TGI [24]: 23.4 µM
GI50 [25]: 0.327 µM
TGI [25]: 11.6 µM
GI50 [26]: 2.19 µM
TGI [26]: 15.4 µM
GI50 [27]: 0.214 µM
TGI [27]: 0.516 µM
GI50 [28]: 0.808 µM
TGI [28]: > 88.9 µM
GI50 [29]: 1.15 µM
TGI [29]: 15.4 µM
GI50 [30]: 1.33 µM
TGI [30]: 19.2 µM
GI50 [31]: 0.406 µM
TGI [31]: 7.66 µM
GI50 [32]: 0.398 µM
TGI [32]: 5.05 µM
GI50 [33]: 0.438 µM
TGI [33]: 13.4 µM
GI50 [34]: 0.409 µM
TGI [34]: 7.85 µM
GI50 [35]: 1.35 µM
TGI [35]: 19.9 µM
GI50 [36]: 2.37 µM
TGI [36]: 15.5 µM
GI50 [37]: 1.19 µM
TGI [37]: 15.9 µM
GI50 [38]: 0.377 µM
TGI [38]: 12.1 µM
GI50 [39]: 0.408 µM
TGI [39]: 15.8 µM
GI50 [40]: 0.275 µM
TGI [40]: 1.33 µM
GI50 [41]: 1.49 µM
TGI [41]: 19.4 µM
GI50 [42]: 0.288 µM
TGI [42]: 2.47 µM
GI50 [43]: 0.379 µM
TGI [43]: 1.81 µM
GI50 [44]: 1.06 µM
TGI [44]: 20.8 µM
GI50 [45]: 2.48 µM
TGI [45]: 22.4 µM
GI50 [46]: 0.845 µM
TGI [46]: 10.4 µM
GI50 [47]: 2.7 µM
TGI [47]: 22.1 µM
GI50 [48]: 0.865 µM
TGI [48]: 12.6 µM
GI50 [49]: 0.566 µM
TGI [49]: 16.3 µM
GI50 [50]: 0.234 µM
TGI [50]: 1.41 µM
GI50 [51]: 0.542 µM
TGI [51]: > 47.2 µM
GI50 [52]: 0.451 µM
TGI [52]: 15.8 µM
GI50 [53]: 0.462 µM
TGI [53]: 29.2 µM
GI50 [54]: 9.74 µM
TGI [54]: 30 µM
GI50 [55]: 0.609 µM
TGI [55]: 12.7 µM
GI50 [56]: 12.1 µM
TGI [56]: 32.1 µM
GI50 [57]: 0.447 µM
TGI [57]: 14.8 µM
GI50 [58]: 0.562 µM
TGI [58]: 17.1 µM
